This note sets out measurements from patent publication US8940314B2, “Repellent to insects harmful to a plant and method for repelling the same” (Riken, priority 2004, dated 2015).

Format in all cases: in vivo
For one experiment, the system named is greenhouse whitefly. Kind of experiment: Repelling effect on greenhouse whitefly, treated common bean seed leaves. Particulars: ingredient 80 parts + auxiliary A 20 parts, 200 mg/100 ml water, 3 days at 22 to 30° C., number of adult insects vs distilled water area. On the procedure: Main ingredients (80 parts by mass) and auxiliary A (polyoxyethylene (5) monododecyl ether) (20 parts by mass) listed in Table 1 were mixed to prepare a sample of the repellent of the present invention.
(§1) The repellent was diluted with water to 200 mg/100 ml which was then applied to seed leaves of common bean (variety: Taisho Kintoki). As control samples, auxiliary A alone and distilled water were used. After drying, the plant was maintained at 22 to 30° C. for 3 days in an isolated room in which adult greenhouse whiteflies were grown and the number of adult insects that came flying was counted with time. A repelling ratio was determined according to the following formula. Repelling ratio (%)=100×[1−(the number of adult insects in the repellent applied area)/(the number of adult insects in the distilled water applied area)]

The next experiment relates to silverleaf whitefly. Briefly: Repelling effect on silverleaf whitefly, treated cucumber seed leaves. Particulars: ingredient 80 parts + auxiliary B 20 parts, 200 mg/100 ml water, 3 days at 22 to 30° C., number of adult insects vs distilled water area. On the procedure: (§2) (polyoxyethylene phenyl ether+dodecylbenzenesulufonate): soybean oil (1:1:1) (20 parts by mass) listed in Table 2 were mixed to prepare a sample of the repellent of the present invention. The repellent was diluted with water to 200 mg/100 ml which was then applied to seed leaves of cucumber (variety: Sagami Hanjiro). As control samples, auxiliary B alone and distilled water were used. After drying, the plant was maintained at 22 to 30° C. for 3 days in an isolated room in which adult silverleaf whiteflies were grown and the number of adult insects that came flying was counted with time. A repelling ratio was determined according to the following formula.

The subject of the next experiment is green peach aphid. Briefly: Repelling effect on green peach aphid, treated eggplant seed leaves. Particulars: ingredient 80 parts + auxiliary B 20 parts, 200 mg/100 ml water, 7 days at 22 to 30° C., number of adult insects vs distilled water area. On the procedure: as §2, with “oil (1:1:1))” for “oil (1:1:1)”, “Table 4” for “Table 2”, “of eggplant” for “of cucumber”, “(variety: Senryo No. 2).” for “(variety: Sagami Hanjiro).”, “for 7” for “for 3”, “which green peach aphid” for “which adult silverleaf whiteflies”

A further experiment concerns cotton aphid. Kind of experiment: Repelling effect on cotton aphid, treated cucumber true leaves. Particulars: ingredient 80 parts + auxiliary A 20 parts, 200 mg/100 ml water, 7 days at 22 to 30° C., number of adult insects vs distilled water area. The procedure:
Main ingredients (80 parts by mass) and auxiliary A (polyoxyethylene (5) monododecyl ether) (20 parts by mass) listed in Table 3 were mixed to prepare a sample of the repellent of the present invention.
as §1, with “to true” for “to seed”, “of cucumber” for “of common bean”, “(variety: Sagami Hanjiro at 0.7 leaf stage).” for “(variety: Taisho Kintoki).”, “for 7” for “for 3”, “which cotton aphid” for “which adult greenhouse whiteflies”

The test system of a further experiment is Thrips palmi Karny. Kind of experiment: Repelling effect on Thrips palmi Karny, insect damage on treated eggplant true leaves. Particulars: ingredient 80 parts + auxiliary B 20 parts, 200 mg/100 ml water, 10 days at 22 to 30° C., total degree of insect damage vs distilled water area. The procedure:
The same procedures in Example 5 were repeated to prepare the repellent except that auxiliary B (diglycerin monooleate : (polyoxyethylene phenyl ether+dodecylbenzenesulufonate): soybean oil (1:1:1)) was used in place of auxiliary A.
(§3) The repellent was diluted with water to 200 mg/100 ml which was then applied to true leaves of eggplant (variety: Senryo No. 2 at 3.5 leaf stage). As control samples, auxiliary B alone and distilled water were used. After drying, the plant was maintained at 22 to 30° C. for 10 days in an isolated room in which adult Thrips palmi Karny were grown and the degree of insect damage (the number of insect damage spots) was observed and were totaled based on the criteria: 0 for no damage, 1 for very slight damage, 3 for slight damage, 5 for remarkable damage and 10 for serious damage. A repelling ratio was determined according to the following formula. Repelling ratio (%)=100×[1−(the total degree of insect damage in the repellent applied area)/(the total degree of insect damage in the distilled water applied area)]

A further experiment deals with western flower thrips. Briefly: Repelling effect on western flower thrips, insect damage on treated eggplant true leaves. The note with it: ingredient 80 parts + auxiliary A 20 parts, 200 mg/100 ml water, 10 days at 22 to 30° C., total degree of insect damage vs distilled water area. On the procedure: as §3, with “Main ingredients (80 parts by mass) and auxiliary A (polyoxyethylene (5) monododecyl ether) (20 parts by mass) listed in Table 5 were mixed to prepare a sample of the repellent of the present invention. The” for “The”, “A” for “B”, “western flower thrips” for “Thrips palmi Karny”, “formula.” for “formula. Repelling ratio (%)=100×[1−(the total degree of insect damage in the repellent applied area)/(the total degree of insect damage in the distilled water applied area)]”

Take `CCCCCCCCCC(=O)O` [1-18, n-capric acid]: the “Repelling ratio (%)” value came to 90% with greenhouse whitefly, 86% in the experiment on silverleaf whitefly, 68% in the experiment on green peach aphid and 76% in the experiment with cotton aphid.
On to `CCCCCCCC/C=C\CCCCCCCC(=O)O` [1-19, oleic acid], for which the “Repelling ratio (%)” value in the experiment on greenhouse whitefly is 84%; with Thrips palmi Karny, 69%; with silverleaf whitefly it was 68%; with green peach aphid, 70%; in the experiment with western flower thrips, 76%; in the experiment on cotton aphid, 70%.
In the case of `CC(C)CCCCCCCCCCCCCCC(=O)O` [1-20, isostearic acid], the “Repelling ratio (%)” value in the experiment with greenhouse whitefly is 72%; in the experiment on silverleaf whitefly, 65%.
For the compound `OC[C@@H](O)[C@H]1OC[C@H](O)[C@H]1O` [1-21, sorbitan], the “Repelling ratio (%)” value in the experiment on greenhouse whitefly is listed as 74%; with silverleaf whitefly, 67%; in the experiment with green peach aphid, 62%; with cotton aphid, 68%.
Consider `CCCCCCCCCCCC(=O)OCC(COC(=O)CCCCCCCCCCC)OC(=O)CCCCCCCCCCC` [5-22, glycerin trilaurate], for which the figures for the “Repelling ratio (%)” value with Thrips palmi Karny and with western flower thrips were 90% and 82%, respectively.
As to `OC[C@@H](O)[C@@H](O)[C@H](O)[C@@H](O)CO` [5-23, sorbitol], the “Repelling ratio (%)” value stood at 55% in the experiment on Thrips palmi Karny and 61% in the experiment on western flower thrips.
On to “citric acid unsaturated fatty acid monoglyceride [1-7]”, for which the “Repelling ratio (%)” value in the experiment on greenhouse whitefly stood at 73%; in the experiment on silverleaf whitefly, 71%; in the experiment with green peach aphid, 81%; with cotton aphid, 92%.
As to decaglycerin laurate [1-9], the “Repelling ratio (%)” value is listed as 80% in the experiment on greenhouse whitefly, 70% in the experiment with silverleaf whitefly, 83% in the experiment with green peach aphid and 90% in the experiment on cotton aphid.
The matching figures for decaglycerin oleate [1-8]: 76%, 75%, 78% and 95%.
Regarding decaglycerin stearate [5-7], the “Repelling ratio (%)” value with Thrips palmi Karny is on record as 70%; with western flower thrips, 77%.
The matching figures for diglycerin monostearate [5-5]: 55% and 60%.
In the case of glycerin diacetomonolaurate [1-6], the “Repelling ratio (%)” value is reported as 96% in the experiment on greenhouse whitefly, 94% in the experiment on silverleaf whitefly, 77% with green peach aphid and 82% with cotton aphid.
As for glycerin monoacetomonostearate [5-8], the “Repelling ratio (%)” value in the experiment on Thrips palmi Karny was found to be 55%; in the experiment with western flower thrips, 68%.
For the compound glycerin monocaprylate [1-1], the “Repelling ratio (%)” value in the experiment on greenhouse whitefly amounted to 82%; with silverleaf whitefly it was 73%; with green peach aphid it was 76%; in the experiment with cotton aphid, 88%.
As for glycerin monolaurate [5-1], the “Repelling ratio (%)” value came out at 65% in the experiment with Thrips palmi Karny and 62% with western flower thrips.
As for glycerin monooleate [1-2], the “Repelling ratio (%)” value in the experiment on greenhouse whitefly stood at 82%; with silverleaf whitefly, 70%; in the experiment on green peach aphid it was 81%; with cotton aphid it was 85%.
As to glycerin monopalmitate [5-3], the “Repelling ratio (%)” value in the experiment on Thrips palmi Karny worked out at 71%; in the experiment on western flower thrips it was 68%.
Taken in the same sequence, the figures for glycerin monostearate [5-2] were 62% and 58%.
As to poly (2-3) glycerin oleate [5-6], the “Repelling ratio (%)” value with Thrips palmi Karny is recorded as 68%; in the experiment on western flower thrips, 58%.
With “polyoxyethylene (5) monododecyl ether [1-23, reference compound]”, the figures for the “Repelling ratio (%)” value in the experiment with greenhouse whitefly, in the experiment on western flower thrips and in the experiment on cotton aphid were 5%, 8% and 3%, respectively.
polyoxyethylene (20) sorbitan [5-13]: the “Repelling ratio (%)” value was found to be 54% in the experiment on Thrips palmi Karny and 68% with western flower thrips.
On to polyoxyethylene (40) sorbitan [1-15], for which the “Repelling ratio (%)” value in the experiment on greenhouse whitefly is on record as 70%; in the experiment with Thrips palmi Karny it was 69%; in the experiment with silverleaf whitefly it was 85%; in the experiment with green peach aphid, 82%; in the experiment with western flower thrips, 75%; with cotton aphid it was 75%.
On to polyoxyethylene (60) sorbitan [1-16], for which the “Repelling ratio (%)” value in the experiment on greenhouse whitefly is 73%; with silverleaf whitefly, 77%; with green peach aphid, 80%; with cotton aphid, 78%.
For the compound propylene glycol monooleate [1-10], the “Repelling ratio (%)” value came to 82% with greenhouse whitefly; 81% in the experiment with Thrips palmi Karny; 73% in the experiment with silverleaf whitefly; 76% with green peach aphid; 80% in the experiment with western flower thrips; 82% with cotton aphid.
Consider sorbitan laurate [1-4], for which the “Repelling ratio (%)” value was 92% with greenhouse whitefly; 63% in the experiment on Thrips palmi Karny; 92% in the experiment on silverleaf whitefly; 82% in the experiment on green peach aphid; 53% in the experiment with western flower thrips; 96% in the experiment on cotton aphid.
As to sorbitan oleate [1-5], the “Repelling ratio (%)” value in the experiment with greenhouse whitefly was determined as 80%; in the experiment with silverleaf whitefly, 75%; with green peach aphid, 85%; with cotton aphid, 93%.
With sorbitan palmitate [5-11], the “Repelling ratio (%)” value is reported as 73% in the experiment on Thrips palmi Karny and 72% in the experiment with western flower thrips.
As to “succinic acid saturated acid monoglyceride [5-9]”, the entries for the “Repelling ratio (%)” value with Thrips palmi Karny and with western flower thrips were 71% and 70%, respectively.
With “sucrose fatty acid ester (laurate) [5-25]”, the “Repelling ratio (%)” value in the experiment with Thrips palmi Karny is listed as 68%; in the experiment on western flower thrips, 55%.
As for “sucrose fatty acid ester (oleate) [5-24]”, the “Repelling ratio (%)” value with Thrips palmi Karny turned out to be 62%; in the experiment on western flower thrips it was 58%.
